Test systems include ACHN renal; T-47D breast; SN12C renal; OVCAR-5 ovarian; M14 melanoma; HCT-116 colon; CCRF-CEM leukemia; NCI-H522 lung; COLO 205 colon; CAKI-1 renal.
Test in all cases: NCI tumour cell line growth inhibition, 48 h

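Exposure lasted 48 hours, with cells grown in 96-well plates and compounds tested at five concentrations. GI50 marks 50% less growth. TGI is the concentration that stops growth completely.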 Bounds are passed on as bounds.

With `COc1c(CCC[P+](c2ccccc2)(c2ccccc2)c2ccccc2)cc2c(c1OC)OCO2`, the GI50 with ACHN renal is 5.34 µM; in the test with T-47D breast, 0.419 µM; with SN12C renal it was 2.42 µM; with OVCAR-5 ovarian it was 2.74 µM; with M14 melanoma, 2.22 µM; in the test with HCT-116 colon it was 1.2 µM. In addition, the GI50 with CCRF-CEM leukemia was 1.7 µM; in the test with NCI-H522 lung, 1.75 µM; with COLO 205 colon, 1.21 µM; in the test with CAKI-1 renal, 2.45 µM. The TGI with ACHN renal is 29.5 µM; in the test with T-47D breast, 35.3 µM; in the test on SN12C renal it was 10.4 µM; in the test with OVCAR-5 ovarian, 81.2 µM; with M14 melanoma it was 19.2 µM; in the test on HCT-116 colon, over 100 µM. Further, the TGI in the test with CCRF-CEM leukemia was over 100 µM; in the test with NCI-H522 lung, 10.8 µM; with COLO 205 colon it was 5.71 µM; in the test with CAKI-1 renal, 7.35 µM.
Regarding `N#Cc1cnc2cc(OC[C@H](O)CO)c(NC(=O)CC3CSSC3)cc2c1Nc1ccc(OCc2cccc(F)c2)c(Cl)c1`, the GI50 in the test with ACHN renal is 1.73 µM; with T-47D breast, 0.575 µM; in the test on SN12C renal, 0.35 µM; with OVCAR-5 ovarian, 0.872 µM; with M14 melanoma, 0.139 µM; with HCT-116 colon, 0.0977 µM. The GI50 in the test on CCRF-CEM leukemia was 0.0923 µM; in the test with NCI-H522 lung, 0.729 µM; with COLO 205 colon, 0.883 µM; with CAKI-1 renal, 10.1 µM. Also, the TGI came out at 5.42 µM in the test with ACHN renal; 1.47 µM in the test with T-47D breast; 1.1 µM with SN12C renal; 1.89 µM in the test with OVCAR-5 ovarian; 0.447 µM in the test with M14 melanoma; 0.208 µM in the test with HCT-116 colon. Besides, the TGI in the test on CCRF-CEM leukemia is 0.251 µM; in the test on NCI-H522 lung it was 1.59 µM; in the test with COLO 205 colon it was 1.81 µM; with CAKI-1 renal, 27.6 µM.
For `C[C@@H](C(=O)Nc1ccc(Cl)cc1)C1CCC(c2ccnc3ccc(F)cc23)CC1` (stereo not given in full), the GI50 in the test with ACHN renal is 4.61 µM; in the test on T-47D breast it was 3.36 µM; in the test on SN12C renal, 8.23 µM; with OVCAR-5 ovarian, 17.8 µM; in the test with M14 melanoma, 7.12 µM; with HCT-116 colon it was 3.13 µM. In addition, the GI50 in the test with CCRF-CEM leukemia is 3.43 µM; with NCI-H522 lung it was 10.7 µM; in the test on COLO 205 colon, 8.8 µM; in the test on CAKI-1 renal it was 6.23 µM. Besides, the TGI was over 100 µM in the test on ACHN renal; 46.1 µM in the test with T-47D breast; 44.4 µM in the test with SN12C renal; over 100 µM in the test with OVCAR-5 ovarian; over 100 µM in the test on M14 melanoma; 21.6 µM in the test with HCT-116 colon. Moreover, the TGI is over 100 µM in the test with CCRF-CEM leukemia, 70.5 µM in the test with NCI-H522 lung, 34 µM in the test on COLO 205 colon and over 100 µM in the test on CAKI-1 renal.
For `O=C(CC(=O)CC(O)(C(F)(F)F)C(F)(F)F)CC(O)(C(F)(F)F)C(F)(F)F`, the TGI with ACHN renal, in the test on T-47D breast, with SN12C renal, in the test on OVCAR-5 ovarian, in the test on M14 melanoma and in the test on HCT-116 colon was over 10 µM in each case. In addition, the TGI in the test with CCRF-CEM leukemia, in the test with NCI-H522 lung, in the test with COLO 205 colon and in the test on CAKI-1 renal was over 10 µM in each case.
With `COC(=O)[C@H](Cc1cn(C)cn1)NC(=O)[C@H](Cc1c[nH]c2ccccc12)NC(=O)Nc1cc(C(F)(F)F)cc(C(F)(F)F)c1`, the GI50 in the test on ACHN renal, in the test with T-47D breast, in the test with SN12C renal, with OVCAR-5 ovarian, with M14 melanoma and in the test on HCT-116 colon was over 10 µM throughout. Further, the GI50 with CCRF-CEM leukemia, in the test with NCI-H522 lung, in the test on COLO 205 colon and in the test with CAKI-1 renal was over 10 µM in each case. Also, the TGI in the test on ACHN renal, in the test on T-47D breast, with SN12C renal, in the test on OVCAR-5 ovarian, in the test on M14 melanoma and in the test on HCT-116 colon was over 10 µM throughout. The TGI in the test on CCRF-CEM leukemia, with NCI-H522 lung, with COLO 205 colon and with CAKI-1 renal was over 10 µM in each case.
For `COc1ccc(C(=O)/C=C/c2ccc(/C=C/c3cc(OC)c(OC)c(OC)c3)cc2)cc1`, the GI50 was 11.6 µM in the test with ACHN renal; 6.19 µM with T-47D breast; 9.61 µM with SN12C renal; 34.1 µM with OVCAR-5 ovarian; 9.61 µM in the test with M14 melanoma; 2.62 µM in the test with HCT-116 colon. Besides, the GI50 in the test with CCRF-CEM leukemia was 4.15 µM; with NCI-H522 lung it was 3.3 µM; in the test with COLO 205 colon it was 13.7 µM; in the test on CAKI-1 renal, 14.6 µM. Further, the TGI in the test on ACHN renal, in the test with T-47D breast, with SN12C renal, with OVCAR-5 ovarian, in the test with M14 melanoma and in the test on HCT-116 colon was over 100 µM in each case. Also, the TGI with CCRF-CEM leukemia is over 100 µM; in the test on NCI-H522 lung, 30.7 µM; in the test on COLO 205 colon, over 100 µM; in the test with CAKI-1 renal it was over 100 µM.
As for `Cc1occc1C(=S)Nc1ccc(Cl)c(COC(C)(C)C)c1`, the TGI in the test on ACHN renal is 31.1 µM; in the test with T-47D breast it was 26.9 µM; in the test on SN12C renal, 29.2 µM; with OVCAR-5 ovarian, 50.6 µM; with M14 melanoma, 43.5 µM; in the test with HCT-116 colon, 32.1 µM. In addition, the TGI was determined as 62.4 µM in the test with CCRF-CEM leukemia, 28.6 µM in the test with NCI-H522 lung, 30.6 µM with COLO 205 colon and 38.9 µM in the test with CAKI-1 renal.
Take `COc1ccc(-c2ccc(/C=N/n3c(COc4ccc(Cl)cc4Cl)n[nH]c3=S)o2)c([N+](=O)[O-])c1`: the GI50 with ACHN renal was 45.3 µM; in the test on T-47D breast, 44 µM; in the test on SN12C renal it was 24.2 µM; in the test on OVCAR-5 ovarian, 21.3 µM; in the test with M14 melanoma, 16 µM; with HCT-116 colon, 17.5 µM. Further, the GI50 with CCRF-CEM leukemia was 16.3 µM; in the test on NCI-H522 lung it was 29.7 µM; with COLO 205 colon it was 32.9 µM; in the test on CAKI-1 renal it was 17.3 µM. Moreover, the TGI in the test with ACHN renal was over 100 µM; with T-47D breast, over 100 µM; in the test with SN12C renal it was 58.4 µM; in the test with OVCAR-5 ovarian it was 47.6 µM; with M14 melanoma, 31.6 µM; in the test on HCT-116 colon it was 31.3 µM. In addition, the TGI with CCRF-CEM leukemia was 42 µM; in the test with NCI-H522 lung, over 100 µM; with COLO 205 colon it was over 100 µM; with CAKI-1 renal it was 36.9 µM.

(Values after PubChem BioAssay (NCI).)
